{"source": "patent US20090124587A1", "about": "“METHODS FOR TREATING CANCER USING 17alpha-HYDROXYLASE/C17,20-LYASE INHIBITORS” (priority 2007, published 2009)", "type_in_all_cases": "in vivo, human", "key": {"[1]": {"assay": "Safety, dose limiting toxicity in phase I/II study", "conditions": "all subjects tested, Group 1 (250-2000 mg/day) and Group 2 (1000 mg/day)", "method": "An open label phase I/II study was carried out to evaluate the safety, efficacy and recommended dose of abiraterone acetate in prostate cancer patients. Pharmacokinetics (PK), pharmacodynamics and antitumor efficacy were also studied.\n(§1) The effect of abiraterone acetate on the blood levels of prostate-specific antigen (PSA) was evaluated. Two groups of subjects were involved in the study. The first group (“Group 1”) was comprised of the 18 subjects discussed above as well as 12 additional subjects that were administered 1000 mg/day of abiraterone acetate. All 30 of the subjects in Group 1 were castrated and hormone refractory; however, none of the 30 had been treated with chemotherapy, i.e., they were chemotherapy-naïve. The second group (“Group 2”) was comprised of 13 subjects, all of whom were castrated and hormone refractory. Also, these 13 subjects had been administered docetaxel and were chemotherapy refractory. The subjects in Group 2 were administered 1000 mg/day of abiraterone acetate. The subjects in both groups were administered abiraterone acetate until they progressed."}, "[2]": {"tested_on": "androgenic steroids, such as testosterone", "assay": "Blood plasma levels of androgenic steroids", "conditions": "some subjects", "method": "(§2) FIGS. 15A-15H show the blood plasma level of certain steroids over time in subjects that were administered 250 mg/day, 500 mg/day and 750 mg/day of abiraterone acetate."}, "[3]": {"tested_on": "prostate-specific antigen (PSA)", "assay": "Effect of abiraterone acetate on blood levels of prostate-specific antigen (PSA)", "method": "as §1\n60% of the Group 1 subjects (18 of 30) experienced a decline of PSA levels of greater than 50% for more than 10 days. A third of these subjects experienced PSA declines of greater than 90% for more than 10 days. FIGS. 9A-9D show the effect of the administration of abiraterone acetate on PSA levels for certain of the Group 1 subjects that were administered 250 mg/day, 500 mg/day, 750 mg/day and 1000 mg/day of abiraterone acetate. With respect to the Group 2 subjects, 7 of the 13 subjects experienced a decline in PSA levels of about 50% for more than 10 days."}, "[4]": {"assay": "Food effect PK study, two single oral 1000 mg doses of abiraterone acetate, fed (high fat) vs fasted", "method": "(§3) To measure the amount of abiraterone and abiraterone acetate in the samples, these compounds were extracted from 100 uL human plasma using solid phase extraction (SPE) with cation mixed-mode polymer cartridges. Extracts were evaporated to dryness before reconstitution and analysis. Chromatography was carried out using a Luna™ C5 column (5 μm, 50 mm×2.1 mm id) with a gradient mobile phase consisting of 10 mM ammonium acetate and 2% propan-2-ol in acetonitrile. The flow rate was 0.2 mL/min and the run time 10.5 minutes. Abiraterone and abiraterone acetate were ionized using the electrospray interface in positive ion mode. Detection of analytes was via tandem mass spectrometry (MS/MS) in the multiple reaction monitoring (MRM) mode.\nPK modeling was conducted using a non-compartmental model, extra vascular input for plasma with WinNonLin Software®. Pharmacokinetic parameters estimated in the model include:\nBased on the above results, the PK parameters for a single dose of 1000 mg/day of abiraterone acetate were further studied in the 3 subjects who were administered the 1000 mg/day dose and in 3 additional subjects. Two single oral doses (1000 mg) of abiraterone acetate were administered separately, one concomitantly with food of high fat content and one in fasting state. The first single dose was administered on day −9 with PK blood samples being taken at 1, 2, 4, 6, 8, 24, 48 and 72 hours post dose. The second single dose was administered on day −3 with PK blood samples being taken at 1, 2, 4, 6, 8, 24 and 48 hours post dose for analysis."}, "[5]": {"tested_on": "circulating tumor cells (CTC)", "assay": "Number of circulating tumor cells after administration", "conditions": "certain patients after administration"}, "[6]": {"assay": "Pharmacokinetic study of abiraterone in hormone refractory prostate cancer patients, oral doses 250-2000 mg/day, fasted", "method": "A group of 15 subjects was divided into five groups. Members of each group were orally administered doses of 250 mg/day, 500 mg/day, 750 mg/day, 1000 mg/day or 2000 mg/day once a day. Before administration the subjects had fasted. PK blood samples were measured at 1, 2, 4, 6, 8, 24, and 72 hours post dose.\nas §3\nPK modeling was conducted using a non-compartmental model, extra vascular input for plasma with WinNonLin Software®. Pharmacokinetic parameters estimated in the model include: […]"}, "[7]": {"assay": "Analgesic use in Group 1 and Group 2 subjects", "conditions": "subjects of both groups"}, "[8]": {"tested_on": "alkaline phosphatase (ALP)", "assay": "Blood plasma levels of alkaline phosphatase", "conditions": "some subjects", "method": "as §2"}, "tumor lesions": {"tested_on": "tumor lesions", "assay": "Effect on tumor mass size, CT scans (RECIST), bone disease, nodes and metastases", "method": "as §1\nThe effect of the administration of abiraterone acetate on tumor mass size was observed."}}}
{"smiles": "CC(=O)O[C@H]1CC[C@@]2(C)C(=CCC3C2CC[C@]2(C)C(c4cccnc4)=CCC32)C1", "note": "(stereo partly shown) [abiraterone acetate, 3-acetoxy-17-(3-pyridyl)androsta-5,16-diene]", "values": [{"measurement": "dose limiting toxicity (DLTs)", "setting": "[1]", "result": "No dose limiting toxicity (DLTs) were observed"}, {"measurement": "blood plasma levels of androgenic steroids, such as testosterone", "setting": "[2]", "result": "declines"}, {"measurement": "subjects with decline of PSA levels of greater than 50% for more than 10 days", "setting": "[3]; Group 1: 30 castrated, hormone refractory, chemotherapy-naïve subjects (18 of 30)", "result": 60, "unit": "%"}, {"measurement": "subjects with PSA declines of greater than 90% for more than 10 days", "setting": "[3]; Group 1, fraction of these subjects", "result": "A third"}, {"measurement": "subjects with decline in PSA levels of about 50% for more than 10 days", "setting": "[3]; Group 2: 13 castrated, hormone refractory, docetaxel-treated chemotherapy refractory subjects, 1000 mg/day", "result": "7 of the 13"}, {"measurement": "AUC at 2000 mg relative to 1000 mg (doubling)", "setting": "[4]; extended cohort, fasted group", "result": "no longer"}, {"measurement": "AUC at 2000 mg relative to 1000 mg", "setting": "[4]; extended cohort, fed group", "result": "approximate doubling of AUC"}, {"measurement": "abiraterone acetate detected in vivo", "setting": "[4]; following an oral dose of abiraterone acetate at 1000 mg", "result": "no abiraterone acetate was detected"}, {"measurement": "mean drug exposure (AUC) at 2000 mg relative to 1000 mg", "setting": "[4]; previously, in both dosing regimes (fed and fasted)", "result": "approximately double"}, {"measurement": "number of circulating tumor cells (CTC)", "setting": "[5]", "result": "declines"}, {"measurement": "drug levels at 1000 mg compared with 500 mg", "setting": "[6]; 1000 mg vs 500 mg Abiraterone acetate", "result": "higher"}, {"measurement": "drug levels measured at 1000 mg compared with 750 mg fasting", "setting": "[6]; 1000 mg vs 750 mg in a fasting state", "result": "not higher"}, {"measurement": "analgesic use", "setting": "[7]", "result": "decrease in analgesic use was observed"}, {"measurement": "blood plasma levels of alkaline phosphatase (ALP)", "setting": "[8]", "result": "declines"}, {"measurement": "partial radiological responses as measured by CT scans (RECIST)", "setting": "tumor lesions; 20 evaluable Group 1 subjects with measurable tumor lesions", "result": 11, "unit": "subjects"}, {"measurement": "subjects with ongoing stable bone disease", "setting": "tumor lesions; Group 1", "result": "Seven"}, {"measurement": "subjects with regressing bone disease", "setting": "tumor lesions; Group 1", "result": "three"}, {"measurement": "pelvic nodes", "setting": "tumor lesions; subject administered 250 mg/day (FIG. 10)", "result": "regression of pelvic nodes"}, {"measurement": "mediastinal nodes", "setting": "tumor lesions; subject administered 500 mg/day (FIG. 13)", "result": "regression of mediastinal nodes"}, {"measurement": "pelvic nodes", "setting": "tumor lesions; subject administered 750 mg/day (FIG. 11)", "result": "regression of pelvic nodes"}, {"measurement": "pulmonary metastases", "setting": "tumor lesions; subject administered 750 mg/day (FIG. 14)", "result": "regression of pulmonary metastases"}, {"measurement": "pelvic nodes", "setting": "tumor lesions; subject administered 1000 mg/day (FIG. 12)", "result": "regression of pelvic nodes"}]}
